In patent KR20080072496A, “노스탁속 균주 유래 아밀로플루란네이즈 및 이를 이용한고순도 말토올리고당의 제조방법” (재단법인서울대학교산학협력재단, priority 2007, dated 2008):

Target: T1, Nostoc sp. PCC73102 amylopullulanase, SEQ ID NO: 4, recombinant from pETNPul6xH with C-terminal Leu-Glu-6His (노스탁속 균주 유래 아밀로플루란네이즈) (Nostoc punctiforme (strain ATCC 29133 / PCC 73102), UniProt B2IUW9)
T1 sequence (B2IUW9 1-488): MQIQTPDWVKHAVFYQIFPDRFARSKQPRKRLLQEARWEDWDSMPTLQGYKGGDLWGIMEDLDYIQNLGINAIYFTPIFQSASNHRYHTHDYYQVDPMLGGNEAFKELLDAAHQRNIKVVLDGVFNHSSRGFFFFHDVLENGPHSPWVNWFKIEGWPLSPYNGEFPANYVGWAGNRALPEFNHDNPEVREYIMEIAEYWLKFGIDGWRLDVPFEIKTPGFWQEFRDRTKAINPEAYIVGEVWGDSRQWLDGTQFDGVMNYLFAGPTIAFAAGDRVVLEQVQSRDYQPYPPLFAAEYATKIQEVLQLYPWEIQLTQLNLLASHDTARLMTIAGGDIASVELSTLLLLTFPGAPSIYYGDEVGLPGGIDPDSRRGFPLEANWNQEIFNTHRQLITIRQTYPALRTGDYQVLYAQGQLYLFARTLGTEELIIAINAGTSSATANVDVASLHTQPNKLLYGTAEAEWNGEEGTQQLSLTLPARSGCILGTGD
Assay: Kinetics of amylopullulanase on maltoheptaose, maltooctaose and maltononaose (Example 6-2, glucose quantified by GOD-POD method)
Assay type: biochemical
Conditions: 25 °C, pH 7, 3 min

SMILES	Kcat, ratio to Kcat of maltoheptaose (relative to maltoheptaose (G7))	Km, ratio to Km of maltononaose (relative to maltononaose (G9))	Km, ratio to Km of maltooctaose (relative to maltooctaose (G8))
OC[C@H]1O[C@H](O[C@H]2[C@H](O)[C@@H](O)[C@@H](O[C@H]3[C@H](O)[C@@H](O)[C@@H](O[C@H]4[C@H](O)[C@@H](O)[C@@H](O[C@H]5[C@H](O)[C@@H](O)[C@@H](O[C@H]6[C@H](O)[C@@H](O)[C@@H](O[C@H]7[C@H](O)[C@@H](O)[C@@H](O[C@H]8[C@H](O)[C@@H](O)[C@@H](O[C@H]9[C@H](O)[C@@H](O)C(O)O[C@@H]9CO)O[C@@H]8CO)O[C@@H]7CO)O[C@@H]6CO)O[C@@H]5CO)O[C@@H]4CO)O[C@@H]3CO)O[C@@H]2CO)[C@H](O)[C@@H](O)[C@@H]1O (stereo partly drawn) [말토노나오스, maltononaose]	~3 배 (fold)		
OC[C@H]1O[C@H](O[C@H]2[C@H](O)[C@@H](O)[C@@H](O[C@H]3[C@H](O)[C@@H](O)[C@@H](O[C@H]4[C@H](O)[C@@H](O)[C@@H](O[C@H]5[C@H](O)[C@@H](O)[C@@H](O[C@H]6[C@H](O)[C@@H](O)[C@@H](O[C@H]7[C@H](O)[C@@H](O)C(O)O[C@@H]7CO)O[C@@H]6CO)O[C@@H]5CO)O[C@@H]4CO)O[C@@H]3CO)O[C@@H]2CO)[C@H](O)[C@@H](O)[C@@H]1O (stereo partly drawn) [말토헵타오스, maltoheptaose]		20 배 (fold)	7 배 (fold)
